# Reference: PubChem BioAssay AID1918991 (Molecular Pharmacology Branch, DTP, NCI, 2023)
# Test system: 186277-243-T-J2-PDC complex spheroid growth
# Assay: Anticancer human tumor 186277-243-T-J2-PDC patient-derived colon adenocarcinoma cell line growth inhibition [AhR]
# Details: for IC50: curve of first compound; for viability, T/C: stronger effect = lower value
# Outline: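 Agents were dosed in half-log steps down from roughly clinical Cmax, or from 10 microM where Cmax was unknown, alone and with AhR antagonists. Read-out: percent test/control growth of tumor spheroids containing HUVEC and MSC stromal cells.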
# [1] = second compound 0.1 µM, first compound 0.000949 µM
# [2] = second compound 0.1 µM, first compound 0.003 µM
# [3] = second compound 0.1 µM, first compound 0.00949 µM
# [4] = second compound 0.1 µM, first compound 0.03 µM
# [5] = second compound 0.1 µM, first compound 0.0949 µM
# [6] = second compound 0.1 µM, first compound 0.3 µM
# [7] = second compound 0.316 µM, first compound 0.000949 µM
# [8] = second compound 0.316 µM, first compound 0.003 µM
# [9] = second compound 0.316 µM, first compound 0.00949 µM
# [10] = second compound 0.316 µM, first compound 0.03 µM
# [11] = second compound 0.316 µM, first compound 0.0949 µM
# [12] = second compound 0.316 µM, first compound 0.3 µM
# [13] = second compound 1 µM, first compound 0.000949 µM
# [14] = second compound 1 µM, first compound 0.003 µM
# [15] = second compound 1 µM, first compound 0.00949 µM
# [16] = second compound 1 µM, first compound 0.03 µM
# [17] = second compound 1 µM, first compound 0.0949 µM
# [18] = second compound 1 µM, first compound 0.3 µM
# [19] = second compound 3.16 µM, first compound 0.000949 µM
# [20] = second compound 3.16 µM, first compound 0.003 µM
# [21] = second compound 3.16 µM, first compound 0.00949 µM
# [22] = second compound 3.16 µM, first compound 0.03 µM
# [23] = second compound 3.16 µM, first compound 0.0949 µM
# [24] = second compound 3.16 µM, first compound 0.3 µM
# [25] = second compound 10 µM, first compound 0.000949 µM
# [26] = second compound 10 µM, first compound 0.003 µM
# [27] = second compound 10 µM, first compound 0.00949 µM
# [28] = second compound 10 µM, first compound 0.03 µM
# [29] = second compound 10 µM, first compound 0.0949 µM
# [30] = second compound 10 µM, first compound 0.3 µM
# 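Further: spheroids exposed to compounds for seven days before the viability read.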
# 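Wherever viability, T/C is given: luminescent signal used as a stand-in for viable cell amount; 100% = DMSO vehicle control wells.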
smiles,measurement,setting,value
Cn1ncnc1C1c2n[nH]c(=O)c3cc(F)cc(c23)NC1c1ccc(F)cc1 (stereo not given) + CC(CO)NC(=O)c1cc(-c2ccc(Cl)cc2)nn(-c2cnn(C)c2)c1=O,IC50,second compound 0.1 µM,> 100 nM
same,IC50,second compound 0.316 µM,> 100 nM
same,IC50,second compound 1 µM,> 100 nM
same,IC50,second compound 3.16 µM,> 100 nM
same,IC50,second compound 10 µM,> 100 nM
same,"viability, T/C","second compound 0.1 µM, first compound 0.000316 µM",103%
same,"viability, T/C","second compound 0.1 µM, first compound 0.001 µM",99.3%
same,"viability, T/C","second compound 0.1 µM, first compound 0.00316 µM",102%
same,"viability, T/C","second compound 0.1 µM, first compound 0.01 µM",93.5%
same,"viability, T/C","second compound 0.1 µM, first compound 0.0316 µM",89.4%
same,"viability, T/C","second compound 0.1 µM, first compound 0.1 µM",63.8%
same,"viability, T/C","second compound 0.316 µM, first compound 0.000316 µM",111%
same,"viability, T/C","second compound 0.316 µM, first compound 0.001 µM",106%
same,"viability, T/C","second compound 0.316 µM, first compound 0.00316 µM",93.1%
same,"viability, T/C","second compound 0.316 µM, first compound 0.01 µM",96.9%
same,"viability, T/C","second compound 0.316 µM, first compound 0.0316 µM",83%
same,"viability, T/C","second compound 0.316 µM, first compound 0.1 µM",64.5%
same,"viability, T/C","second compound 1 µM, first compound 0.000316 µM",102%
same,"viability, T/C","second compound 1 µM, first compound 0.001 µM",108%
same,"viability, T/C","second compound 1 µM, first compound 0.00316 µM",118%
same,"viability, T/C","second compound 1 µM, first compound 0.01 µM",94.6%
same,"viability, T/C","second compound 1 µM, first compound 0.0316 µM",79.4%
same,"viability, T/C","second compound 1 µM, first compound 0.1 µM",69.3%
same,"viability, T/C","second compound 3.16 µM, first compound 0.000316 µM",92.7%
same,"viability, T/C","second compound 3.16 µM, first compound 0.001 µM",109%
same,"viability, T/C","second compound 3.16 µM, first compound 0.00316 µM",94.7%
same,"viability, T/C","second compound 3.16 µM, first compound 0.01 µM",86.4%
same,"viability, T/C","second compound 3.16 µM, first compound 0.0316 µM",76.5%
same,"viability, T/C","second compound 3.16 µM, first compound 0.1 µM",67.7%
same,"viability, T/C","second compound 10 µM, first compound 0.000316 µM",87%
same,"viability, T/C","second compound 10 µM, first compound 0.001 µM",98.1%
same,"viability, T/C","second compound 10 µM, first compound 0.00316 µM",84.5%
same,"viability, T/C","second compound 10 µM, first compound 0.01 µM",72.3%
same,"viability, T/C","second compound 10 µM, first compound 0.0316 µM",61.9%
same,"viability, T/C","second compound 10 µM, first compound 0.1 µM",56%
CCc1c2c(nc3ccc(O)cc13)-c1cc3c(c(=O)n1C2)COC(=O)[C@]3(O)CC + CC(CO)NC(=O)c1cc(-c2ccc(Cl)cc2)nn(-c2cnn(C)c2)c1=O,IC50,second compound 0.1 µM,< 0.949 nM
same,IC50,second compound 0.316 µM,< 0.949 nM
same,IC50,second compound 1 µM,< 0.949 nM
same,IC50,second compound 3.16 µM,< 0.949 nM
same,IC50,second compound 10 µM,< 0.949 nM
same,"viability, T/C",[1],38.7%
same,"viability, T/C",[2],30.1%
same,"viability, T/C",[3],22.8%
same,"viability, T/C",[4],16.7%
same,"viability, T/C",[5],10.3%
same,"viability, T/C",[6],6.69%
same,"viability, T/C",[7],38.5%
same,"viability, T/C",[8],27.1%
same,"viability, T/C",[9],21.9%
same,"viability, T/C",[10],15.6%
same,"viability, T/C",[11],8.35%
same,"viability, T/C",[12],5.97%
same,"viability, T/C",[13],37.8%
same,"viability, T/C",[14],28.9%
same,"viability, T/C",[15],24.8%
same,"viability, T/C",[16],16.4%
same,"viability, T/C",[17],8.38%
same,"viability, T/C",[18],6.06%
same,"viability, T/C",[19],31.3%
same,"viability, T/C",[20],25.4%
same,"viability, T/C",[21],24.5%
same,"viability, T/C",[22],15.3%
same,"viability, T/C",[23],9.33%
same,"viability, T/C",[24],6.42%
same,"viability, T/C",[25],27.5%
same,"viability, T/C",[26],25.6%
same,"viability, T/C",[27],22.6%
same,"viability, T/C",[28],15.4%
same,"viability, T/C",[29],8.39%
same,"viability, T/C",[30],6.77%
CCc1c2c(nc3ccc(O)cc13)-c1cc3c(c(=O)n1C2)COC(=O)[C@]3(O)CC + Cc1ccccc1N=Nc1ccc(NC(=O)c2ccnn2C)c(C)c1,IC50,second compound 0.1 µM,74 nM
same,IC50,second compound 0.316 µM,66.3 nM
same,IC50,second compound 1 µM,66.6 nM
same,IC50,second compound 3.16 µM,60.6 nM
same,IC50,second compound 10 µM,61.4 nM
same,"viability, T/C",[1],119%
same,"viability, T/C",[2],143%
same,"viability, T/C",[3],114%
same,"viability, T/C",[4],81.7%
same,"viability, T/C",[5],42.6%
same,"viability, T/C",[6],25.4%
same,"viability, T/C",[7],114%
same,"viability, T/C",[8],145%
same,"viability, T/C",[9],123%
same,"viability, T/C",[10],78%
same,"viability, T/C",[11],40.5%
same,"viability, T/C",[12],27%
same,"viability, T/C",[13],128%
same,"viability, T/C",[14],157%
same,"viability, T/C",[15],123%
same,"viability, T/C",[16],80.5%
same,"viability, T/C",[17],37.9%
same,"viability, T/C",[18],24.2%
same,"viability, T/C",[19],125%
same,"viability, T/C",[20],138%
same,"viability, T/C",[21],119%
same,"viability, T/C",[22],77%
same,"viability, T/C",[23],33.6%
same,"viability, T/C",[24],21.1%
same,"viability, T/C",[25],106%
same,"viability, T/C",[26],114%
same,"viability, T/C",[27],106%
same,"viability, T/C",[28],76.6%
same,"viability, T/C",[29],34.2%
same,"viability, T/C",[30],21.9%
